Experimental data published in patent US20080249130A1, “Gut microsomal triglyceride transport protein inhibitors” (Sirtris Pharmaceuticals, Inc., priority 2007, published 2008).
Several values for one entry are separate records, joined by “and”; a condition that tells them apart may be missing. Equal values may be shown once. Where a name gives a salt, the structure may show the parent alone. Read-outs that look alike come from different tables or passages of the source.

Key:
[1] = target: T1, MTP (Homo sapiens, UniProt P55157); conditions: As referenced in Wetterau et al., Science 282: 751, 1998; read-out: gMTP IC50 Triacylglycerol Transfer Assay (Example 3); cited from earlier work
[2] = target: T1, MTP; assay: In vitro inhibition of MTP, triacylglycerol transfer assay with donor and acceptor liposomes (fluorescence); type: biochemical
Description: This assay is commercially available (Cat. #D400, Chylos Inc., New York). Liposomes are pipetted in 5 μl aliquots into the wells of a black fluorescence microtiter plate, followed by addition of 5 μl of water and an incubation of 2-5 min to allow the samples to equilibrate to rt. Next, 5 μl of compound dissolved in DMSO is added to the vesicles. The reaction is initated by the addition of 5 μl MTP, followed by incubation for 30 min at room temperature. […] Time of incubation can be increased to measure low activity in different samples. In such situations, samples are prepared just prior to measuring fluorescence units. For this purpose, isopropanol is added to substrate vesicles about 5 min prior to fluorescence measurement as the fluorescence readings in isopropanol decrease with time.

[3] = tested on: C57BL/6 male mice; assay: Murine food intake; type: in vivo; conditions: mice fasted overnight, 100 mg/kg PO, out through 6 hours
Description: C57BL/6 male mice, 18-22 grams (Wilmington, Mass. Charles River Labs), 10 mice per group, are fasted overnight (16 hrs). Mice are dosed PO at indicated dose (10 animals vehicle and 10 animals receive 100 mg/kg of test compound) and a preweighed amount of food is given to animals. Food is weighed every hour up to 6 hrs. Blood is collected at 2 to 6 hours.

[4] = tested on: secretion of ApoB by HepG2 cells; assay: ApoB secretion inhibition assay in HepG2 cells (ApoB ELISA); type: cell-based, human; conditions: Homo sapiens
Summary of the method: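 HepG2 cells were serum-starved for 24 h, then treated for 24 h in DMEM with 1% BSA, 0.3 mM BSA-complexed oleic acid and 0.1% DMSO. Secreted ApoB in conditioned medium was measured by sandwich ELISA (A450). Viability was checked by AlamarBlue fluorescence.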

[5] = Tables 2-5, first symbol of the cell, read-out: IC50 Tri-acylglycerol (TAG) Transfer Assay (Example 3)
[6] = HepG2, Tables 2-5, second symbol of the cell, read-out: IC50 Apo B Secretion Assay (Example 2)
[7] = Table 6, assay of Example 3, read-out: IC50 Enzyme Assay
[8] = HepG2, Table 6, assay of Example 2, read-out: IC50 ApoB Assay

T1 sequence (P55157 19-894, species assumed): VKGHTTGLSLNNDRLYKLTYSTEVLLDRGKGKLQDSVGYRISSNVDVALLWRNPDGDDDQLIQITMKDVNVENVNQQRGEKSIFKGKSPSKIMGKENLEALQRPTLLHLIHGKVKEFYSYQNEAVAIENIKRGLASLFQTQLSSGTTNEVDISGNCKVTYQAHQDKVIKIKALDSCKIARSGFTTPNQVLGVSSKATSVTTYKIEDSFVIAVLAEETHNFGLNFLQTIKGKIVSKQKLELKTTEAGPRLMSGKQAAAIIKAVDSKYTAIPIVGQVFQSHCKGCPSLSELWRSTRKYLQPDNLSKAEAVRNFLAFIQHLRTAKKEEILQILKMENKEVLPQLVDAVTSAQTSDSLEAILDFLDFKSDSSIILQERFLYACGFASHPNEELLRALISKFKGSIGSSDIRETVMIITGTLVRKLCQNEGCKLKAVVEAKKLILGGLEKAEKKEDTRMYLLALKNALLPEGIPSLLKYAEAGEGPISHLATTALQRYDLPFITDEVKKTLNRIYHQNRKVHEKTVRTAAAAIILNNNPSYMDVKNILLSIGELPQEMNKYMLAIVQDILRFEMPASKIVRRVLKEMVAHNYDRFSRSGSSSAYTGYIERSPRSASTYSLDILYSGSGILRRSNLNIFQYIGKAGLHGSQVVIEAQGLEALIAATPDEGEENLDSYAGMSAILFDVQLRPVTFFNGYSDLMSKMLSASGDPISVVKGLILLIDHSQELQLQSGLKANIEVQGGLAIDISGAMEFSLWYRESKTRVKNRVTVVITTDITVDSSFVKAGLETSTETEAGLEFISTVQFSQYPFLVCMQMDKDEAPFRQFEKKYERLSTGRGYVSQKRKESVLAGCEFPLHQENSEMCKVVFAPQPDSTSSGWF
T1 sequence (P07237 18-508 partner, species assumed): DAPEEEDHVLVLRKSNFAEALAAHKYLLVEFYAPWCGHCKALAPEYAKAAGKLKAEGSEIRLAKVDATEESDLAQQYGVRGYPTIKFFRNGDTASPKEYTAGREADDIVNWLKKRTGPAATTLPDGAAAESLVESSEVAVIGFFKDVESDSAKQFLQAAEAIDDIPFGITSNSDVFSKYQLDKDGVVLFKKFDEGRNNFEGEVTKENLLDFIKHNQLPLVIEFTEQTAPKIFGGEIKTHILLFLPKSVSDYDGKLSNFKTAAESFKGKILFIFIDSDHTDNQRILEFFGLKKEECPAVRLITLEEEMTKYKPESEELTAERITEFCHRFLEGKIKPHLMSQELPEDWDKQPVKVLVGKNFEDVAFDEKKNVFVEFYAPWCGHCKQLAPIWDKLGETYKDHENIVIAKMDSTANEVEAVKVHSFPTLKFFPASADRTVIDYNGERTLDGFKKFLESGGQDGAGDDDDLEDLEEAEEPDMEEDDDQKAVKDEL

Compound	IC50 [2, 7]	IC50 [4, 8] [nM]	also measured
O=C(NC1CCN(CCCCC2(C(=O)NCC(F)(F)F)c3ccccc3-c3ccccc32)CC1)c1ccccc1-c1ccc(C(F)(F)F)cc1 [compound 2, N-(2,2,2-trifluoroethyl)-9-(4-(4-(4′-(trifluoromethyl)biphenyl-2-ylcarboxamido)piperidin-1-yl)butyl)-9H-fluorene-9-carboxamide]			IC50 [1]: 0.5 nM
CN(Cc1ccc(F)cc1)C(=O)[C@@H](NC(=O)c1ccc2nc(NC(=O)c3ccccc3C3CCNCC3)ccc2c1)c1ccccc1 [Compound C1]			IC50 [2, 5]: > 1010 nM; drop in food intake compared to control [3]: ~50%; IC50 [4, 6]: > 1010 nM
COc1cccc(C(=O)Nc2ccc3nc(C(=O)N[C@H](C(=O)N4CCCC4)c4ccccc4)sc3c2)c1-c1ccc(C(C)(C)C)cc1 [Compound 77]	3.8 nM	1.2	
CN(Cc1ccc(F)cc1)C(=O)[C@@H](NC(=O)c1nc2ccc(NC(=O)c3ccccc3-c3ccc(C(C)(C)C)cc3)cc2s1)c1ccccc1 [Compound 4, (S)-6-(4′-tert-butylbiphenyl-2-ylcarboxamido)-N-(2-((4-fluorobenzyl)(methyl)amino)-2-oxo-1-phenylethyl)benzo[d]thiazole-2-carboxamide]	13.9 nM and 3 nM	3	
CN(Cc1ccc(F)cc1)C(=O)[C@@H](NC(=O)c1ccc2nc(NC(=O)c3ccccc3-c3cn4ccsc4n3)ccc2c1)c1ccccc1 [Compound 3, (S)—N-(2-((4-fluorobenzyl)(methyl)amino)-2-oxo-1-phenylethyl)-2-(2-(imidazo[2,1-b]thiazol-6-yl)benzamido)quinoline-6-carboxamide]	10.9 nM	8	
Cc1cccc(C(=O)Nc2ccc3nc(C(=O)N[C@H](C(=O)N4CCCC4)c4ccccc4)sc3c2)c1-c1ccc(C(C)C)cc1 [Compound 85]	5.1 nM	2.3	
CN(Cc1ccc(F)cc1)C(=O)[C@@H](NC(=O)c1nc2ccc(NC(=O)c3ccccc3-c3cn4ccsc4n3)cc2s1)c1ccccc1 [Compound 24, (S)—N-(2-((4-fluorobenzyl)(methyl)amino)-2-oxo-1-phenylethyl)-6-(2-(imidazo[2,1-b]thiazol-6-yl)benzamido)benzo[d]thiazole-2-carboxamide]	15 nM	23.7	
CN(Cc1ccc(F)cc1)C(=O)[C@@H](NC(=O)c1ccc2nc(NC(=O)c3ccccc3C3CCNCC3)ccc2c1)c1ccccc1 [Compound 1, (S)—N-(2-((4-fluorobenzyl)(methyl)amino)-2-oxo-1-phenylethyl)-2-(2-(piperidin-4-yl)benzamido)quinoline-6-carboxamide hydrochloride]	> 1000 nM	6000	
Cc1cccc(C(=O)Nc2nc(-c3cccc(C(=O)N[C@H](C(=O)N4CCCC4)c4ccccc4)c3)cs2)c1-c1ccc(C(C)(C)C)cc1 [Compound 42]	4.5 nM	8.5	
CN(Cc1ccc(F)cc1)C(=O)[C@@H](NC(=O)c1nc2ccc(NC(=O)c3ccccc3-c3nc(C(C)(C)C)cs3)cc2s1)c1ccccc1 [Compound 66, (S)-6-(2-(4-tert-butylthiazol-2-yl)benzamido)-N-(2-((4-fluorobenzyl)(methyl)amino)-2-oxo-1-phenylethyl)benzo[d]thiazole-2-carboxamide]	4.6 nM	4	
CN(Cc1ccc(F)cc1)C(=O)[C@@H](NC(=O)c1nc2ccc(NC(=O)c3ccccc3-n3cccc3)cc2s1)c1ccccc1 [Compound 30]	45 nM	31	
CC(C)c1ccc(-c2ccccc2C(=O)Nc2ccc3nc(C(=O)N[C@H](C(=O)N(C)Cc4ccc(F)cc4)c4ccccc4)sc3c2)cc1 [Compound 54, (S)—N-(2-((4-fluorobenzyl)(methyl)amino)-2-oxo-1-phenylethyl)-6-(4′-isopropylbiphenyl-2-ylcarboxamido)benzo[d]thiazole-2-carboxamide]	15.3 nM and 11.2 nM	6.2	
CC(C)(C)c1ccc(-c2ccccc2C(=O)Nc2ccc3nc(C(=O)N[C@H](C(=O)N4CCC(F)(F)C4)c4ccccc4)sc3c2)cc1 [Compound 14]	5.2 nM	8.8	
CN(Cc1ccc(F)cc1)C(=O)[C@@H](NC(=O)c1nc2ccc(NC(=O)c3ccccc3-c3ccc(C(C)(C)C)cc3)cc2s1)c1ccccc1 (single isomer, unassigned)			IC50 [2, 5]: < 100 nM; IC50 [4, 6]: < 100 nM
COc1cccc(C(=O)Nc2ccc3nc(C(=O)N[C@H](C(=O)N4CCCC4)c4ccccc4)sc3c2)c1-c1ccc(C(C)C)cc1 [Compound 84]	3.6 nM	1.1	
COc1cccc(C(=O)Nc2ccc3nc(C(=O)N[C@H](C(=O)N4CCCC4)c4ccccc4)sc3c2)c1-c1ccc(C(F)(F)F)cc1 [Compound 79]	3.1 nM	2.7	
CCCCN(C)C(=O)[C@@H](NC(=O)c1nc2ccc(NC(=O)c3ccccc3-c3ccc(C(C)(C)C)cc3)cc2s1)c1ccccc1 [Compound 5]	9.5 nM	6.5	
